Assay: Alkali-resistant solubility test (filtration of dyestuff in alkali solution)
Type: physicochemical
Conditions: aqueous alkali solution (Na2SiO2 and NaOH), aqueous buffer; Na2SiO2 50°Be′ = 100 g/L, NaOH 38°Be′ = 30 ml/L; filtered through No. 1 filter paper
Description: First, the dyestuffs of the formula (A) and the formula (1), taken with proper amounts in accordance to a preliminary test, are respectively dissolved in water. The alkali solution including 100 g/L 50°Be′ Na2SiO2 and 30 ml/L 38°Be′ NaOH is added therein, respectively. The mixture samples respectively are filtered through the No. 1 filter paper of Toyo Rosh Kaisha, Ltd. in order to estimate how many solids are residual and then to determine the alkali-resistant solubility.

CCN(c1cccc(S(=O)(=O)CCOS(=O)(=O)O)c1)c1nc(Nc2cc(S(=O)(=O)O)cc3c2[O][Cu-]24[O]C(=O)c5ccc(S(=O)(=O)O)cc5[N]2N=C(c2ccccc2)N=[N+]34)nc(SCC(=O)O)n1 (stereo not shown) [formula (1)]
solubility: > 70 mg/mL
